For test [1], the system named is CD8+ T cells. Nature of the test: ELISPOTs detection of IFN-γ secretion by peptide-specific CD8+ T cells. The conditions noted are these: ratio of spot numbers; >2 immunogenic. It is filed as cell-based, human.
The next test has as its system T2 cells. Nature of the test: LDH release assay, killing of peptide-loaded T2 target cells by CD8+ T cells. It counts as cell-based, human. The conditions noted are these: 4 h. As for the experimental part: The cells cultured in Example 3 were co-cultured with T2 cells loaded with the mutant peptides of the present invention or the wild-type peptide or without a peptide. A maximum release well, a volume correction well, a medium control well, a spontaneous release well and control wells for example at different effector-to-target ratios (ratios of T cells to T2 cells) were set in this experiment. Three replicate wells were set for each group. After 4 h, 50 μl of the co-culture supernatant was taken out and added to 50 μl of LDH substrate mixture to catalyze the reaction of LDH substrate. Finally, the plates were read at a wavelength of 490 nm, with a reference wavelength of 680 nm, and the killing activity against target cells T2 was calculated based on the control wells.
The formula for calculating the killing activity is: Killing efficiency (%)=(test well−spontaneous release of effector cells−spontaneous release of target cells+medium well)/(maximum release of target cells−volume correction well−spontaneous release of target cells+medium well)×100%
(LDH in the medium is a marker of cell lysis.)

Test [2] relates to CD8+ T cells. Put plainly: ELISPOTs detection of IFN-γ secretion by peptide-specific CD8+ T cells. The following applies: for Conclusion (immunogenicity): ELISPOTs; for Number of spots in the mutant peptide group / Number of spots in the wild-type peptide group: T cells activated by the listed peptide, 20 h; for Number of spots in the mutant peptide group: T2 cells loaded with TLISSLMPI; for Number of spots in the wild-type peptide group: T2 cells loaded with TLISSLRPI
It counts as cell-based, human. The text has this: In this example, a ELISPOTs detection kit (Cat. No.: 3420-4AST-10, MABTECH) was used to verify the activation of an immune response of CD8+ T cells by the peptides of the present invention.
Principle of the ELISPOTs detection method is as follows: CD8+ T cells can specifically recognize the complex of HLA-A0201 and a peptide. The population of T cells recognizing the complex of the peptide and HLA-A0201 is varying, depending on the peptide sequence. Since T2 cells express HLA-A0201, CD8+ T cells can specifically recognize the T2 cells loaded with a peptide. After specific recognition of the complex of HLA-A0201 and the peptide, peptide-specific CD8+ T cells can be activated again to secrete IFN-γ interferon. The IFN-γ interferon secreted by the activated CD8+ T cells can be captured by antibodies on the ELISPOTs plate. Finally, the enzyme-conjugated antibody that recognizes IFN-γ can degrade the substrate through the enzyme conjugated thereto and develop color, eventually producing spots. The number of spots represents the number of cells that are activated to secrete IFN-γ interferon.
The cultured cells from Example 3 were added, along with T2 cells loaded with the mutant peptide […] (SEQ ID NO: 2) of the present invention and the wild-type peptide […] (SEQ ID NO: 1), respectively, into ELISPOTs plates, and cultured for 20 h, and then a ELISPOTs detection was performed (see the kit instruction). Finally, the spots produced by the ELISPOTs detection were counted.
The peptide was determined to have immunogenicity when the number of spots of the tested peptide/the number of spots of an unrelated peptide>2; that is, if the number of spots caused by the tested peptide is more than twice than that of an unrelated peptide, the tested peptide is determined to have immunogenicity.

In test [3] the test system is H2087-TLISSLMPI (SEQ ID NO: 2) subcutaneous tumor. Put plainly: DC vaccine infected with recombinant lentivirus containing peptide gene in H2087-[…] tumor model. It counts as in vivo, NOD/SCID mice. The conditions noted are these: DC infected with lentivirus carrying peptide gene, 2 injections. From the text: The following DNA sequences were synthesized: “[…]” (SEQ ID NO: 8), encoding the wild-type peptide […] (SEQ ID NO: 1); “[…]” (SEQ ID NO: 9), encoding the mutant peptide […] (SEQ ID NO: 2); “[…]” (SEQ ID NO: 10), encoding the SEQ ID NO: 2 […]'s variant peptide […] (SEQ ID NO: 3); “[…]” (SEQ ID NO: 11), encoding the SEQ ID NO: 2 […]'s variant peptide […] (SEQ ID NO: 4); “[…]” (SEQ ID NO: 12), encoding the SEQ ID NO: 2 […]'s variant peptide […] (SEQ ID NO: 5); “[…]” (SEQ ID NO: 13), encoding the SEQ ID NO: 2 […]'s variant peptide […] (SEQ ID NO: 6); and “[…]” (SEQ ID NO: 14), encoding the SEQ ID NO: 2_[…]'s variant peptide […] (SEQ ID NO: 7). The wild-type peptide […] (SEQ ID NO: 1), the mutant peptide […] (SEQ ID NO: 2) and the mutant peptide SEQ ID NO: 2 […]'s variant peptides were constructed into the lentiviral vector pHBLV-Puro, respectively, to name as pHBLV-Puro-[…] (SEQ ID NO: 1), pHBLV-Puro-[…] (SEQ ID NO: 2), pHBLV-Puro-[…] (SEQ ID NO: 3), pHBLV-Puro-[…] (SEQ ID NO: 4), pHBLV-Puro-[…] (SEQ ID NO: 5), pHBLV-Puro-[…] (SEQ ID NO: 6) and pHBLV-Puro-[…] (SEQ ID NO: 7), respectively. The seven lentiviral constructs were co-transfected into 293T cells with helper plasmids pSPAX2 and pMD2G for packaging, and lentiviruses of the wild-type peptide […] (SEQ ID NO: 1), the mutant peptide […] (SEQ ID NO: 2) and the mutant peptide's variant peptides were obtained.
600-900 ml of anticoagulated peripheral blood was collected from healthy volunteers for isolating peripheral blood mononuclear cells (PBMCs) via Ficoll. Cells were collected for use. 2×10^7 PBMCs per 0.5 ml was intraperitoneally injected into each of 300 NOD SCID mice without immune leakage to perform human immune reconstitution in NOD SCID mice. […]
The human non-small cell lung adenocarcinoma cell line H2087-[…] […] The long diameter a and the short diameter b of the tumor were measured with a vernier caliper every 2-3 days and the size of the tumor was calculated as a*b*b/2. The mice and tumors were weighed and recorded every day. […] The tumor volume and the survival rate of mice were recorded every 2 days. […]

The mark [4] stands for this setting: effector-to-target ratio 1:1, target T2 loaded with TLISSLMPI
[5] abbreviates: effector-to-target ratio 1:1, target T2 loaded with wild-type TLISSLRPI
Where [6] appears, read: effector-to-target ratio 10:1, target T2 loaded with TLISSLMPI
Setting [7] is: effector-to-target ratio 10:1, target T2 loaded with wild-type TLISSLRPI

Regarding TLISSLMPL, the “Fold (tested/wild-type)” value in the test with CD8+ T cells [1] is 8.57. For the same sequence, the Killing efficiency with T2 cells (setting [4]) came to 8.23%; in the test with T2 cells (setting [5]), 3.12%; in the test with T2 cells (setting [6]) it was 39.66%; with T2 cells (setting [7]) it was 5.71%. Besides, the “Conclusion (immunogenicity)” value with CD8+ T cells [2] was “immunogenic”. Also, the “Number of spots in the mutant peptide group” value in the test on CD8+ T cells [2] worked out at 317. The “Number of spots in the wild-type peptide group” value in the test with CD8+ T cells [2] is recorded as 37.

Take TLISSLMPV: the “Fold (tested/wild-type)” value in the test on CD8+ T cells [1] is 7.93. In addition, the Killing efficiency is 8.56% with T2 cells (setting [4]), 2.57% with T2 cells (setting [5]), 43.82% in the test on T2 cells (setting [6]) and 4.73% with T2 cells (setting [7]). The “Conclusion (immunogenicity)” value with CD8+ T cells [2] was “immunogenic”. The “Number of spots in the mutant peptide group” value in the test with CD8+ T cells [2] was 325. Moreover, the “Number of spots in the wild-type peptide group” value in the test on CD8+ T cells [2] is reported as 41.

Take “TLISSLRPI [wild-type CACNA1H peptide used as comparison, reference compound]”: in test [3], the Tumor-suppressing effect result is on record as “no effect on this tumor”.

Turning to TMISSLMPI, the “Fold (tested/wild-type)” value in the test on CD8+ T cells [1] is reported as 11.88. For the same sequence, the Killing efficiency turned out to be 8.33% in the test on T2 cells (setting [4]), 2.85% in the test on T2 cells (setting [5]), 41.16% in the test on T2 cells (setting [6]) and 5.13% in the test on T2 cells (setting [7]). Moreover, the “Conclusion (immunogenicity)” value with CD8+ T cells [2] is reported as “immunogenic”. For the same sequence, the “Number of spots in the mutant peptide group” value with CD8+ T cells [2] stood at 321. Moreover, the “Number of spots in the wild-type peptide group” value with CD8+ T cells [2] was 27.

Turning to TMISSLMPL, in the test with CD8+ T cells [1], the “Fold (tested/wild-type)” value was 8.67. Also, the Killing efficiency in the test with T2 cells (setting [4]) was determined as 9.12%; in the test with T2 cells (setting [5]) it was 3.13%; in the test on T2 cells (setting [6]), 45.23%; in the test with T2 cells (setting [7]), 5.83%. Moreover, the “Conclusion (immunogenicity)” value in the test with CD8+ T cells [2] is “immunogenic”. Also, the “Number of spots in the mutant peptide group” value in the test on CD8+ T cells [2] is on record as 338. The “Number of spots in the wild-type peptide group” value in the test with CD8+ T cells [2] was 39.

For TMISSLMPV, the “Fold (tested/wild-type)” value in the test on CD8+ T cells [1] is recorded as 9.86. The Killing efficiency was 9.32% in the test on T2 cells (setting [4]), 3.51% with T2 cells (setting [5]), 47.35% with T2 cells (setting [6]) and 6.31% with T2 cells (setting [7]). Moreover, the “Conclusion (immunogenicity)” value in the test on CD8+ T cells [2] was “immunogenic”. In addition, the “Number of spots in the mutant peptide group” value with CD8+ T cells [2] is listed as 345. Also, the “Number of spots in the wild-type peptide group” value in the test on CD8+ T cells [2] was 35.

(Values after patent US11548925B2, “CACNA1H-derived tumor antigen polypeptide and use thereof” (Genoimmune Therapeutics Co., Ltd., priority 2016, dated 2023).)
